Assay results from US20240150377A1, “MODULATORS OF CYSTIC FIBROSIS TRANSMEMBRANE CONDUCTANCE REGULATOR” (VERTEX PHARMACEUTICALS INCORPORATED, priority 2020, published 2024).

Molecular target: T1, CFTR (Homo sapiens, UniProt P13569, DEL508-508)
T1 construct: endogenous in cells; host or cells: primary human bronchial epithelial cells from CF subjects (F508del/MF-HBE), differentiated at air-liquid interface
Assay: HBE2 assay: Ussing chamber assay of CFTR-mediated short-circuit currents
Type: cell-based
Conditions: 3 μM corrector; F508del/MF-HBE cells; with 44 nM potentiator, 18-24 hours, 20% human serum
Procedure, shortened: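 Corrector activity read as CFTR-dependent ISC (μA/cm^2): peak forskolin current minus post-inhibitor steady state. Measured at 37 °C, voltage clamp at 0 mV, on F508del/MF-HBE epithelia grown >14 days air-liquid interface in Ussing chambers.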

T1 sequence (P13569 with tags, fused parts or gaps DEL508-508): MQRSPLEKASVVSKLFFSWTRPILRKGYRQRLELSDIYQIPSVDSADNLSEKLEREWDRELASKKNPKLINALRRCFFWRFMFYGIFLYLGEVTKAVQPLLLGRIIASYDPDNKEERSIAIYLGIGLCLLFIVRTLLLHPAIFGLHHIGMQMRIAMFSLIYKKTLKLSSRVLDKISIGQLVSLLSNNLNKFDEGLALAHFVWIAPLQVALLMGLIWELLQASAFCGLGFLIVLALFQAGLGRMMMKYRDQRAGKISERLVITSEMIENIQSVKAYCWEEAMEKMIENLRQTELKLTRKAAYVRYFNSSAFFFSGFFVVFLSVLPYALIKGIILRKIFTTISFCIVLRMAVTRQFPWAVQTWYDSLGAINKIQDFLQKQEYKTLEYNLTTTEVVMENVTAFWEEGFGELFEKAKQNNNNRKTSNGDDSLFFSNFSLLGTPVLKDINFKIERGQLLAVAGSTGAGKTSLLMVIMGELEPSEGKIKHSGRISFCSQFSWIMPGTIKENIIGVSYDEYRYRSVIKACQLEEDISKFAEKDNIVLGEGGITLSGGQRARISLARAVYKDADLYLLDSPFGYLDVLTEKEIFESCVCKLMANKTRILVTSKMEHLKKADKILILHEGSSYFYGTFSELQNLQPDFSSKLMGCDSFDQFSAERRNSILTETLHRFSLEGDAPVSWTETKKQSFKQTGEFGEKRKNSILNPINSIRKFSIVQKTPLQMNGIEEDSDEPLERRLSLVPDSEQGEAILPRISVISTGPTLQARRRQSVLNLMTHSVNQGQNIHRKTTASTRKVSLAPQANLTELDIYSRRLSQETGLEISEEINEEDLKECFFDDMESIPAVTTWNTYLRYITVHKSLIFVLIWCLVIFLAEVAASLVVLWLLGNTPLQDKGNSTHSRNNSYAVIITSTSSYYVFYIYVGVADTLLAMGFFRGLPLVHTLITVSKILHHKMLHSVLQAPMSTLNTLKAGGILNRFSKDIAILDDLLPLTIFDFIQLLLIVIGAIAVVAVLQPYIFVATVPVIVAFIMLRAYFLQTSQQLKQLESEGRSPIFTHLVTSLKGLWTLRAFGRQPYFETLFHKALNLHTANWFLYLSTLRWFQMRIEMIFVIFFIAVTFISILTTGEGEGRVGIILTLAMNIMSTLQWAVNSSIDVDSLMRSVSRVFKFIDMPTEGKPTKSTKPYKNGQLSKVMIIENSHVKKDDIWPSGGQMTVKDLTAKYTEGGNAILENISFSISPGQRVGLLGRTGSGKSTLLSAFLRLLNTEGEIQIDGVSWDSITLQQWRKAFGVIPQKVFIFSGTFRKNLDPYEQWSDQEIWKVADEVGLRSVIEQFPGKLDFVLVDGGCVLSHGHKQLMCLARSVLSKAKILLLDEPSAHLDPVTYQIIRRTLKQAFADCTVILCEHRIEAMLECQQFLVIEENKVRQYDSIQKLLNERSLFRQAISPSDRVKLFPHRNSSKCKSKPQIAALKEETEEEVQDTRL

Row | HBE2 Activity at 3 μM (%) | SMILES
1 | ++ (++ is 30-60%) | Cc1cccc(C)c1-c1cc2nc(n1)NS(=O)(=O)c1cccc(c1)C(=O)N(Cc1cncc(N(C)C3CCC3)n1)[C@@H]1CN(CCC(C)(C)C)C[C@H]1O2 [Compound 1741]
2 | +++ (+++ is >60+) | Cc1cccc(C)c1-c1cc2nc(n1)NS(=O)(=O)c1cccc(c1)C(=O)N(Cc1cncc(C(C)C)n1)[C@H](CCC(C)(C)C)CO2 [Compound 1842]
3 | +++ (+++ is >60+) | Cc1cccc(C)c1-c1cc2nc(n1)NS(=O)(=O)c1cccc(c1)C(=O)N(Cc1cncc(N3CCCC4CCC43)n1)[C@H](CC1CC1)CO2 (stereo in doubt) [Compound 1838]
4 | +++ (+++ is >60+) | Cc1cccc(C)c1-c1cc2nc(n1)NS(=O)(=O)c1cccc(c1)C(=O)N(Cc1cnc3cc(C(C)C)n(C)c3n1)[C@H](CC(C)(C)C)CO2 [Compound 1756]
5 | +++ (+++ is >60+) | Cc1cccc(C)c1-c1cc2nc(n1)NS(=O)(=O)c1cccc(c1)C(=O)N(Cc1cncc(N3CC[C@@H]4CC[C@@H]43)n1)[C@H](CCC1CC1)CO2 [Compound 1922]
6 | +++ (+++ is >60+) | Cc1cccc(C)c1-c1cc2nc(n1)NS(=O)(=O)c1cccc(c1)C(=O)N(Cc1cncc(N(C)CC(C)C)n1)[C@H](CCC(C)C)CO2 [Compound 1763]
7 | ++ (++ is 30-60%) | Cc1cccc(C)c1-c1cc2nc(n1)NS(=O)(=O)c1cccc(c1)C(=O)N(Cc1cncc(N(C)C3CCC3)n1)[C@@H]1CN(C3CC4(CCCC4)C3)C[C@H]1O2 [Compound 1323, (3R,7R)-8-[[6-[Cyclobutyl(methyl)amino]pyrazin-2-yl]methyl]-19-(2,6-dimethylphenyl)-15,15-dioxo-5-spiro[3.4]octan-2-yl-2-oxa-15λ^6-thia-5,8,16,18,21-pentazatetracyclo[15.3.1.110,14.03,7]docosa-1(20),10,12,14(22),17(21),18-hexaen-9-one]
8 | +++ (+++ is >60+) | Cc1cccc(C)c1-c1cc2nc(n1)NS(=O)(=O)c1cccc(c1)C(=O)N(Cc1cnc3cc(C(C)C)n(C)c3n1)[C@H](CC1(C(F)(F)F)CC1)CO2 [Compound 1835]
9 | +++ (+++ is >60+) | CCc1cc2ncc(CN3C(=O)c4cccc(c4)S(=O)(=O)Nc4nc(cc(-c5c(C)cccc5C)n4)OC[C@H]3CC(C)(C)C)nc2n1C [Compound 1911]
10 | +++ (+++ is >60+) | Cc1cccc(C)c1-c1cc2nc(n1)NS(=O)(=O)c1cccc(c1)C(=O)N(Cc1cncc(N(C)C3CCC3)n1)[C@@H]1CCN(C3CC4(CC4)C3)C[C@H]1O2 [Compound 1767]
11 | +++ (+++ is >60+) | Cc1cccc(C)c1-c1cc2nc(n1)NS(=O)(=O)c1cccc(c1)C(=O)N(Cc1cncc(N3CCC[C@H]3C)n1)[C@H](CC(C)(C)F)CO2 [Compound 1803]
12 | +++ (+++ is >60+) | Cc1cccc(C)c1-c1cc2nc(n1)NS(=O)(=O)c1cccc(c1)C(=O)N(Cc1cnc3ccn(CC(C)C)c3n1)[C@H](CC(C)(C)C)CO2 [Compound 1755]
13 | +++ (+++ is >60+) | Cc1cccc(C)c1-c1cc2nc(n1)NS(=O)(=O)c1cc(n(C)n1)C(=O)N(Cc1cncc(N(C)C3CCC3)n1)[C@H](CC(C)(C)C)CO2 [Compound 1944]
14 | +++ (+++ is >60+) | Cc1cccc(C)c1-c1cc2nc(n1)NS(=O)(=O)c1cccc(c1)C(=O)N(Cc1cncc(N3CCC[C@H]3C)n1)[C@H](C[C@H]1CCCOC1)CO2 (stereo in doubt) [Compound 1940]
15 | +++ (+++ is >60+) | COC[C@@H]1CCCN1c1cncc(CN2C(=O)c3cccc(c3)S(=O)(=O)Nc3nc(cc(-c4c(C)cccc4C)n3)OC[C@H]2CC2CCCCC2)n1 [Compound 1867]
16 | +++ (+++ is >60+) | Cc1cccc(C)c1-c1cc2nc(n1)NS(=O)(=O)c1cccc(c1)C(=O)N(Cc1cncc(N3CCCC[C@H]3C)n1)[C@H](CCC(C)C)CO2 [Compound 1749]
17 | +++ (+++ is >60+) | Cc1cccc(C)c1-c1cc2nc(n1)NS(=O)(=O)c1cccc(c1)C(=O)N(Cc1cnc3cc(C(C)C)n(C)c3n1)[C@H](CCC(C)C)CO2 [Compound 1827]
18 | +++ (+++ is >60+) | CCN(CCOC)c1cncc(CN2C(=O)c3cccc(c3)S(=O)(=O)Nc3nc(cc(-c4c(C)cccc4C)n3)OC[C@H]2CCC(C)(C)C)n1 [Compound 1811]
19 | +++ (+++ is >60+) | Cc1cccc(C)c1-c1cc2nc(n1)NS(=O)(=O)c1cccc(c1)C(=O)N(Cc1cncc(N3CC(C)(C)[C@H]3C(C)C)n1)[C@H](CC(C)(C)C)CO2 (stereo in doubt) [Compound 1751]
20 | +++ (+++ is >60+) | Cc1cccc(C)c1-c1cc2nc(n1)NS(=O)(=O)c1cccc(c1)C(=O)N(Cc1cnc3cc(C(C)C)n(C)c3n1)[C@H](COC(C)C)CO2 [Compound 1919]
21 | +++ (+++ is >60+) | Cc1cccc(C)c1-c1cc2nc(n1)NS(=O)(=O)c1cccc(c1)C(=O)N(Cc1cncc(N(C)C3CCC3)n1)[C@H](CC1CCCC1)CO2 [Compound 1844]
22 | +++ (+++ is >60+) | Cc1cccc(C)c1-c1cc2nc(n1)NS(=O)(=O)c1cccc(c1)C(=O)N(Cc1cnc3oc(C(C)C)cc3n1)[C@H](CC(C)(C)C)CO2 [Compound 1333, (11R)-6-(2,6-Dimethylphenyl)-11-(2,2-dimethylpropyl)-12-[(6-isopropylfuro[2,3-b]pyrazin-2-yl)methyl]-2,2-dioxo-9-oxa-2λ6-thia-3,5,12,19-tetrazatricyclo[12.3.1.14,8]nonadeca-1(18),4(19),5,7,14,16-hexaen-13-one]
23 | +++ (+++ is >60+) | Cc1cccc(C)c1-c1cc2nc(n1)NS(=O)(=O)c1cccc(c1)C(=O)N(Cc1cncc(N3CCC34CCC4)n1)[C@H](CCC(C)(C)C)CO2 [Compound 1837]
24 | +++ (+++ is >60+) | Cc1cccc(C)c1-c1cc2nc(n1)NS(=O)(=O)c1cccc(c1)C(=O)N(Cc1cncc(N(C)CC(C)(C)C)n1)[C@H](CCC(C)(C)C)CO2 [Compound 1739]
25 | +++ (+++ is >60+) | Cc1cccc(C)c1-c1cc2nc(n1)NS(=O)(=O)c1cccc(c1)C(=O)N(Cc1cncc(N(C)C3CC4(CC4)C3)n1)[C@H](COC(C)C)CO2 [Compound 1949]

Same assay, conditions: 3 μM; F508del/MF-HBE cells; with 44 nM potentiator; 18-24 hours; 20% human serum

Row | HBE2 Activity at 3 μM (%) | SMILES
26 | +++ (+++ is >60+) | CCCOc1cnc(CN2C(=O)c3cccc(c3)S(=O)(=O)Nc3nc(cc(-c4c(C)cccc4C)n3)OC[C@H]2CC2(C)CC2)nc1 [Compound 1562]
27 | +++ (+++ is >60+) | Cc1cccc(C)c1-c1cc2nc(n1)NS(=O)(=O)c1cccc(c1)C(=O)N(Cc1cncc(N3C(=O)CCC3C(C)C)n1)[C@H](CC(C)(C)C)CO2 (stereo in doubt) [Compound 1675]
28 | ++ (++ is 30-60%) | Cc1cccc(C)c1-c1cc2nc(n1)NS(=O)(=O)c1cccc(c1)C(=O)N(Cc1cncc(N3CCC4NC(=O)CC43)n1)[C@H](CC(C)(C)C)CO2 (stereo in doubt) [Compound 1622]
29 | +++ (+++ is >60+) | Cc1cccc(C)c1-c1cc2nc(n1)NS(=O)(=O)c1cccc(c1)C(=O)N(Cc1cncc(N3CC[C@H]4C3CC(=O)N4C)n1)[C@H](CC(C)(C)C)CO2 (stereo in doubt) [Compound 1640]
30 | +++ (+++ is >60+) | Cc1cccc(C)c1-c1cc2nc(n1)NS(=O)(=O)c1cccc(c1)C(=O)N(Cc1cncc(N3CC4CC3C4)n1)[C@H](CC(C)(C)C)CO2 [Compound 1687]
31 | +++ (+++ is >60+) | Cc1cccc(C)c1-c1cc2nc(n1)NS(=O)(=O)c1cccc(c1)C(=O)N(Cc1cncc(N(C)C3CCC3)n1)[C@H](CC(C)(C)C)CO2 [Compound 1310, (11R)-12-[[6-[Cyclobutyl(methyl)amino]pyrazin-2-yl]methyl]-6-(2,6-dimethylphenyl)-11-(2,2-dimethylpropyl)-2,2-dioxo-9-oxa-2λ^6-thia-3,5,12,19-tetrazatricyclo[12.3.1.14,8]nonadeca-1(18),4(19),5,7,14,16-hexaen-13-one]
32 | +++ (+++ is >60+) | Cc1cccc(C)c1-c1cc2nc(n1)NS(=O)(=O)c1cccc(c1)C(=O)N(Cc1coc(N(C)C3CC(F)(F)C3)n1)[C@H](CC(C)(C)C)CO2 [Compound 1647]
33 | +++ (+++ is >60+) | Cc1cccc(C)c1-c1cc2nc(n1)NS(=O)(=O)c1cccc(c1)C(=O)N(Cc1coc(N(C)CC3CCC3)n1)[C@H](CC(C)(C)C)CO2 [Compound 1646]
34 | +++ (+++ is >60+) | Cc1cccc(C)c1-c1cc2nc(n1)NS(=O)(=O)c1cccc(c1)C(=O)N(Cc1cncc(N(C)CCN(C)C(=O)OC(C)C)n1)[C@H](CC(C)(C)C)CO2 [Compound 1662]
35 | +++ (+++ is >60+) | Cc1cccc(C)c1-c1cc2nc(n1)NS(=O)(=O)c1cccc(c1)C(=O)N(Cc1cncc(N(C)c3cnn(C)c3)n1)[C@H](CC(C)(C)C)CO2 [Compound 1636]
36 | +++ (+++ is >60+) | CCCOc1cnc(CN2C(=O)c3cccc(c3)S(=O)(=O)Nc3nc(cc(-c4c(C)cccc4C)n3)OC[C@H]2CCC(C)C)nc1 [Compound 1577]
37 | +++ (+++ is >60+) | Cc1cccc(C)c1-c1cc2nc(n1)NS(=O)(=O)c1cccc(c1)C(=O)N(Cc1cncc(N3CC[C@@H]4CC[C@@H]43)n1)[C@H](CC(C)(C)C)CO2 (single isomer, unassigned) [Compound 1314]
38 | +++ (+++ is >60+) | Cc1cccc(C)c1-c1cc2nc(n1)NS(=O)(=O)c1cccc(c1)C(=O)N(Cc1ncc(OC(C)C)cn1)[C@H](CC1CCC1)[C@@H](C)O2 [Compound 1567]

Same assay, conditions: F508del/MF-HBE cells; with 44 nM potentiator; 18-24 hours; 20% human serum

Row | SMILES | EC50
39 | Cc1cccc(C)c1-c1cc2nc(n1)NS(=O)(=O)c1cccc(c1)C(=O)N(Cc1cncc(N(C)C3CCC3)n1)[C@H](CC(C)(C)C)CO2 [Compound 1310, (11R)-12-[[6-[Cyclobutyl(methyl)amino]pyrazin-2-yl]methyl]-6-(2,6-dimethylphenyl)-11-(2,2-dimethylpropyl)-2,2-dioxo-9-oxa-2λ^6-thia-3,5,12,19-tetrazatricyclo[12.3.1.14,8]nonadeca-1(18),4(19),5,7,14,16-hexaen-13-one] | < 1000 nM
40 | COC[C@H]1CCCCN1c1cncc(CN2C(=O)c3cccc(c3)S(=O)(=O)Nc3nc(cc(-c4c(C)cccc4C)n3)OC[C@H]2CC(C)(C)C)n1 [Compound 1539] | < 1000 nM

Same assay, conditions: F508del/MF-HBE cells; with 44 nM potentiator; 18-24 hours; 20% human serum; read-out: HBE2 Max activity (%)

Row | SMILES | Emax
41 | Cc1cccc(C)c1-c1cc2nc(n1)NS(=O)(=O)c1cccc(c1)C(=O)N(Cc1cncc(N(C)C3CCC3)n1)[C@H](CC(C)(C)C)CO2 [Compound 1310, (11R)-12-[[6-[Cyclobutyl(methyl)amino]pyrazin-2-yl]methyl]-6-(2,6-dimethylphenyl)-11-(2,2-dimethylpropyl)-2,2-dioxo-9-oxa-2λ^6-thia-3,5,12,19-tetrazatricyclo[12.3.1.14,8]nonadeca-1(18),4(19),5,7,14,16-hexaen-13-one] | > 60%
42 | COC[C@H]1CCCCN1c1cncc(CN2C(=O)c3cccc(c3)S(=O)(=O)Nc3nc(cc(-c4c(C)cccc4C)n3)OC[C@H]2CC(C)(C)C)n1 [Compound 1539] | > 60%
